The values below come from ChEMBL document CHEMBL2363022, “Malaria Box Schistosomiasis Screening Data” (2013).

What all share (format): functional
What all share (parameters): scale not given here

Assay [1] deals with Schistosoma mansoni.
In assay [2] the test system is Schistosoma mansoni. This is another data set of the same source.
The test system of assay [3] is Schistosoma mansoni. The source holds these as a separate data set.

`CCOc1cc2c(cc1OCC)C(c1cc(OC)c(O)cc1Cl)NCC2` (configuration not stated): the Toxicity in the assay with Schistosoma mansoni [1], in the assay on Schistosoma mansoni [2] and in the assay on Schistosoma mansoni [3] was 0 each time.

In the case of `FC(F)(F)c1cccc(CNC2CCN(CCc3ccccc3)CC2)c1`, the Toxicity in the assay on Schistosoma mansoni [1], in the assay with Schistosoma mansoni [2] and in the assay with Schistosoma mansoni [3] was 0 in each case.

As for `Fc1ccc2[nH]c3c(NCCCN4CCOCC4)ncnc3c2c1`, the values for the Toxicity with Schistosoma mansoni [1], in the assay with Schistosoma mansoni [2] and in the assay on Schistosoma mansoni [3] were 0, 0 and 1, respectively.

With `CCC1(C)CC(CCNCc2ccccc2O)(c2ccc(C)cc2)CCO1` (configuration not stated), the Toxicity was 2 in the assay with Schistosoma mansoni [1], 2 with Schistosoma mansoni [2] and 4 in the assay on Schistosoma mansoni [3].

For the molecule `Cn1c(=O)c2cc(C(=O)NCCCN3CCCCCC3)sc2c2ccccc21`, the Toxicity in the assay with Schistosoma mansoni [1], in the assay with Schistosoma mansoni [2] and in the assay on Schistosoma mansoni [3] was 0 throughout.

On to `COc1ccc(C(=O)C(CCC(CNC(C)(C)C)C(=O)c2ccc(OC)cc2)CNC(C)(C)C)cc1` (configuration not stated), for which the Toxicity in the assay on Schistosoma mansoni [1] was 3; in the assay with Schistosoma mansoni [2] it was 0; with Schistosoma mansoni [3], 4.

Consider `CC(O)(c1ccc(Cl)cc1)C(CN1CCCCC1)c1ccccc1.Cl` (configuration not stated), for which the Toxicity in the assay with Schistosoma mansoni [1], with Schistosoma mansoni [2] and in the assay on Schistosoma mansoni [3] was 0 in each case.

`Cc1ccc(OCCCCCCNCCO)c(C)c1`: the Toxicity in the assay with Schistosoma mansoni [1], with Schistosoma mansoni [2] and in the assay on Schistosoma mansoni [3] was 0 each time.

For the molecule `COc1ccc2c(c1)C1(Nc3ccccc3-c3nc4ccccc4n31)C(=O)N2` (configuration not stated), the Toxicity in the assay on Schistosoma mansoni [1], in the assay with Schistosoma mansoni [2] and in the assay with Schistosoma mansoni [3] was 0 each time.

Turning to `CN(C)CCCNc1c2ccccc2nc2ccccc12`, the Toxicity in the assay with Schistosoma mansoni [1] was found to be 2; in the assay on Schistosoma mansoni [2], 2; with Schistosoma mansoni [3], 4.

As for `O=C(Nc1ccc(-c2nc3cc(NC(=O)c4ccc(Cl)cc4)ccc3[nH]2)cc1)c1ccc(Cl)cc1`, the Toxicity in the assay with Schistosoma mansoni [1] is 0; in the assay on Schistosoma mansoni [2] it was 1; with Schistosoma mansoni [3] it was 0.

As to `c1ccc(/C2=N/c3ccccc3/N=C(/c3ccccc3)c3ccccc32)cc1`, the Toxicity in the assay on Schistosoma mansoni [1], with Schistosoma mansoni [2] and in the assay on Schistosoma mansoni [3] was 1 throughout.

As for `Cc1cc(N2CCN(C3CCCC3)CC2)n2c(nc3ccccc32)c1C#N`, the Toxicity with Schistosoma mansoni [1], in the assay with Schistosoma mansoni [2] and with Schistosoma mansoni [3] was 0 each time.

As for `O=c1c2c([nH]c3ccccc13)CCCC2`, the Toxicity in the assay with Schistosoma mansoni [1], with Schistosoma mansoni [2] and in the assay with Schistosoma mansoni [3] was 0 each time.

`Cc1ccc(CSCc2ccc(C(=O)NC3CC3)o2)cc1`: the Toxicity in the assay with Schistosoma mansoni [1], in the assay with Schistosoma mansoni [2] and in the assay on Schistosoma mansoni [3] was 0 throughout.

Turning to `COc1ccc(-c2nonc2NC(=O)c2cccc(Cl)c2)cc1OC`, the Toxicity in the assay with Schistosoma mansoni [1], with Schistosoma mansoni [2] and with Schistosoma mansoni [3] was 0 throughout.

In the case of `CCOc1cc(Br)c(C(C)NC(=O)c2cccc(OC)c2)cc1OCC` (configuration not stated), the Toxicity in the assay on Schistosoma mansoni [1], with Schistosoma mansoni [2] and in the assay on Schistosoma mansoni [3] was 0 throughout.

`Nc1ccc(-c2nc3cc(Cc4ccc5[nH]c(-c6ccc(N)cc6)nc5c4)ccc3[nH]2)cc1`: the Toxicity in the assay on Schistosoma mansoni [1], in the assay with Schistosoma mansoni [2] and with Schistosoma mansoni [3] was 1 throughout.

Regarding `CN(C)c1ccc(-c2nc3cc(N)ccc3[nH]2)cc1`, the Toxicity with Schistosoma mansoni [1], in the assay with Schistosoma mansoni [2] and with Schistosoma mansoni [3] was 0 in each case.

For `CCOC(=O)c1cnc2ccc(Cl)cc2c1NCCCN(C)C`, the Toxicity with Schistosoma mansoni [1], in the assay on Schistosoma mansoni [2] and in the assay on Schistosoma mansoni [3] was 1 each time.

On to `O=C(CCl)NCCOc1ccc(Cl)cc1Cl`, for which the Toxicity amounted to 3 in the assay with Schistosoma mansoni [1], 0 in the assay on Schistosoma mansoni [2] and 4 in the assay with Schistosoma mansoni [3].

Regarding `COc1ccc(C(C)=O)cc1N1C(=O)C2C(C1=O)C1(c3ccccc3)C(=O)C2(c2ccccc2)C(c2ccc(C)cc2)=C1c1ccc(C)cc1` (configuration not stated), the Toxicity with Schistosoma mansoni [1], in the assay with Schistosoma mansoni [2] and with Schistosoma mansoni [3] was 0 each time.

Turning to `Cc1sc(NC(=O)c2ccco2)c(C(c2cccnc2)N2CCC(Cc3ccccc3)CC2)c1C` (configuration not stated), the Toxicity is given as 4 in the assay with Schistosoma mansoni [1], 1 in the assay on Schistosoma mansoni [2] and 4 with Schistosoma mansoni [3].

In the case of `COc1cccc(NC(=O)Cn2c(C)c(C#N)c3ccccc32)c1`, the Toxicity in the assay on Schistosoma mansoni [1], in the assay on Schistosoma mansoni [2] and in the assay with Schistosoma mansoni [3] was 0 in each case.

Consider `CC(C)(C)c1ccc2c(c1)CN(Cc1ccc(Cl)cc1)CO2`, for which the Toxicity in the assay on Schistosoma mansoni [1], in the assay on Schistosoma mansoni [2] and with Schistosoma mansoni [3] was 0 throughout.

Take `Cc1ccc(-c2cc(C(=O)Nc3ccc(S(=O)(=O)N4CCCCC4)cc3)[nH]n2)c(O)c1`: the Toxicity with Schistosoma mansoni [1], in the assay on Schistosoma mansoni [2] and with Schistosoma mansoni [3] was 0 in each case.

For `COc1ccc(-n2ccnc2SCC(=O)Nc2cc(C)ccc2C)c(OC)c1`, the Toxicity in the assay with Schistosoma mansoni [1], in the assay with Schistosoma mansoni [2] and in the assay with Schistosoma mansoni [3] was 1 in each case.

Turning to `COc1ccc(CCNC(=O)c2cc(S(=O)(=O)N3CC(C)CC(C)C3)ccc2Sc2ccc(F)cc2)cc1OC` (configuration not stated), the Toxicity in the assay on Schistosoma mansoni [1], in the assay with Schistosoma mansoni [2] and in the assay with Schistosoma mansoni [3] was 4 each time.

For the molecule `Oc1ccc2ccccc2c1CNc1nc2ccccc2[nH]1`, the Toxicity with Schistosoma mansoni [1] came out at 0; in the assay on Schistosoma mansoni [2] it was 2; in the assay on Schistosoma mansoni [3], 0.

Turning to `COc1ccccc1N1C(=N)SC(=Cc2ccc(OCc3ccccc3F)cc2)C1=O`, the Toxicity in the assay with Schistosoma mansoni [1], in the assay on Schistosoma mansoni [2] and in the assay on Schistosoma mansoni [3] was 0 throughout.

In the case of `c1ccc(CNc2nc(Nc3ccccc3)nc3ccccc23)cc1`, the Toxicity in the assay with Schistosoma mansoni [1], in the assay on Schistosoma mansoni [2] and in the assay with Schistosoma mansoni [3] was 2 in each case.

With `COc1ccc(-c2cc3c(nn2)-c2ccccc2C3=O)cc1`, the Toxicity in the assay on Schistosoma mansoni [1], in the assay on Schistosoma mansoni [2] and in the assay on Schistosoma mansoni [3] was 0 throughout.

As for `Nc1nc(Nc2cccc(F)c2)nc2ccccc12`, the Toxicity with Schistosoma mansoni [1], with Schistosoma mansoni [2] and in the assay on Schistosoma mansoni [3] was 0 in each case.

As for `CCOc1ccc(CN2CCN(CC(O)COc3ccc(OCC(O)CN4CCN(Cc5ccc(OCC)cc5)CC4)cc3)CC2)cc1` (configuration not stated), the figures for the Toxicity in the assay with Schistosoma mansoni [1], in the assay on Schistosoma mansoni [2] and with Schistosoma mansoni [3] were 4, 3 and 4, respectively.

Consider `O=c1nc(C=Cc2ccc(Cl)cc2)oc2ccccc12`, for which the Toxicity in the assay with Schistosoma mansoni [1] was found to be 0; in the assay with Schistosoma mansoni [2] it was 2; with Schistosoma mansoni [3], 0.

On to `CCOc1c(Cl)cc(CNCC(O)c2ccccc2)cc1OC` (configuration not stated), for which the Toxicity in the assay on Schistosoma mansoni [1], in the assay on Schistosoma mansoni [2] and in the assay with Schistosoma mansoni [3] was 0 in each case.

With `COCCN(C(=O)Cc1cccs1)C(C(=O)NCc1ccc(OC)cc1)c1ccc(C(C)C)cc1` (configuration not stated), the Toxicity with Schistosoma mansoni [1], in the assay on Schistosoma mansoni [2] and in the assay with Schistosoma mansoni [3] was 0 in each case.

`Cc1cc(C)cc(Nc2cc(C)nc3nc(C(F)(F)F)nn23)c1`: the Toxicity in the assay with Schistosoma mansoni [1], in the assay with Schistosoma mansoni [2] and with Schistosoma mansoni [3] was 0 in each case.

Regarding `C=C(C)CCC(C)N1CCC(N2CCC(C(=O)NCCc3ccccc3)CC2)CC1` (configuration not stated), the Toxicity in the assay with Schistosoma mansoni [1] came out at 0; with Schistosoma mansoni [2], 0; in the assay on Schistosoma mansoni [3], 2.

Regarding `COc1ccccc1CNC(=O)C1c2ccccc2C(=O)N(CC(C)C)C1c1cccs1` (configuration not stated), the Toxicity in the assay on Schistosoma mansoni [1], in the assay on Schistosoma mansoni [2] and in the assay on Schistosoma mansoni [3] was 0 each time.

Take `O=C(Nc1cccc(-c2nc3ccccc3[nH]2)c1)c1cccc(NC(=O)c2ccco2)c1`: the Toxicity in the assay with Schistosoma mansoni [1] is 0; in the assay on Schistosoma mansoni [2], 0; in the assay on Schistosoma mansoni [3], 1.

`CCOC(=O)c1c[nH]c2c(CC)cccc2c1=O`: the results for the Toxicity in the assay on Schistosoma mansoni [1], with Schistosoma mansoni [2] and in the assay with Schistosoma mansoni [3] were 0, 0 and 3, respectively.

With `COc1ccc(C2=C(c3ccc(OC)cc3)C3(c4ccccc4)C(=O)C2(c2ccccc2)C2C(=O)N(c4ccc(C)cc4)C(=O)C23)cc1` (configuration not stated), the Toxicity with Schistosoma mansoni [1], in the assay on Schistosoma mansoni [2] and in the assay on Schistosoma mansoni [3] was 0 in each case.

Regarding `COc1ccc(-c2nonc2NC(=O)c2cccc(C)c2)cc1OC`, the Toxicity with Schistosoma mansoni [1], in the assay with Schistosoma mansoni [2] and with Schistosoma mansoni [3] was 0 throughout.

For the molecule `CCc1c(C)c(=N)c2ccccc2n1C.I`, the Toxicity in the assay with Schistosoma mansoni [1], in the assay on Schistosoma mansoni [2] and in the assay with Schistosoma mansoni [3] was 0 in each case.

In the case of `CC1(c2ccccc2)Nc2ccccc2-c2nc3ccccc3n21` (configuration not stated), the Toxicity in the assay on Schistosoma mansoni [1], with Schistosoma mansoni [2] and in the assay with Schistosoma mansoni [3] was 0 throughout.

On to `O=C(CCc1ccco1)NC1CCN(CC2(c3ccc(Cl)cc3)CCC2)CC1`, for which the Toxicity in the assay on Schistosoma mansoni [1], with Schistosoma mansoni [2] and with Schistosoma mansoni [3] was 0 each time.

Consider `O=C(NC1CCCC1)c1ccc(N2CCC(NCc3cccc(C(F)(F)F)c3)CC2)cc1`, for which the Toxicity in the assay with Schistosoma mansoni [1] turned out to be 0; in the assay on Schistosoma mansoni [2], 0; in the assay on Schistosoma mansoni [3] it was 1.

For `Cc1cc(Nc2cccc(F)c2)nc(NCc2ccccc2)n1`, the Toxicity was found to be 0 in the assay on Schistosoma mansoni [1], 2 in the assay with Schistosoma mansoni [2] and 0 with Schistosoma mansoni [3].

In the case of `Cc1cc(NCCN2CCCCC2)c2ccc3ccccc3c2n1`, the Toxicity in the assay on Schistosoma mansoni [1], in the assay with Schistosoma mansoni [2] and in the assay with Schistosoma mansoni [3] was 4 throughout.

In the case of `O=C(Nc1ccccc1O)c1ccc(-c2ccc(Cl)cc2Cl)o1`, the Toxicity with Schistosoma mansoni [1], in the assay on Schistosoma mansoni [2] and with Schistosoma mansoni [3] was 0 throughout.

With `COc1cccc(NC(=O)[C@H](C(C)C)n2c(=O)[nH]c3ccccc3c2=O)c1`, the Toxicity in the assay with Schistosoma mansoni [1], in the assay on Schistosoma mansoni [2] and in the assay with Schistosoma mansoni [3] was 0 in each case.

In the case of `Cc1ccc(S(=O)(=O)c2c(COC(=O)c3cccc(C)c3)c(-c3ccccc3)nn2C)cc1`, the Toxicity in the assay on Schistosoma mansoni [1], in the assay with Schistosoma mansoni [2] and in the assay on Schistosoma mansoni [3] was 0 throughout.

On to `Cc1c(C)n(CC(O)CNC2CCCCC2C)c2ccccc12` (configuration not stated), for which the Toxicity in the assay with Schistosoma mansoni [1], in the assay on Schistosoma mansoni [2] and in the assay on Schistosoma mansoni [3] was 0 each time.
